Reference: publication PMC2790557 (Biochemistry, 2009)

Target: CK2 (casein kinase II)

`OC[C@H]1O[C@@H](n2cnc3cc(Cl)c(Cl)cc32)[C@H](O)[C@@H]1O` [DRB, 5,6-Dichloro-1-(β-D-ribofuranosyl)benzimidazole] was tested. Which IC50 did it give?
Its IC50 is about 10 µM.
